From US20050065099A1, “Treatment of mitochondrial diseases” (priority 2003, published 2005)

These compounds were tested on FRDA fibroblasts (assay: FRDA fibroblast assay for protection from oxidative stress). Settings: Homo sapiens, 24 h preincubation, 1 mM BSO, compared to untreated FRDA fibroblasts, read-out: EC50 for reduction of cell death in FRDA fibroblasts.
Format: cell-based
Text: A cellular assay using FRDA-patient derived fibroblasts (as described by Jauslin, M L et al, Human Molecular Genetics 11; 3055-3063 (2002)); is used to determine the cell protecting effect of the test compounds by analyzing survival of dermal fibroblasts taken from FRDA patients and unaffected normal donors under conditions of partial GSH depletion. Exposure of FRDA fibroblasts to BSO (L-buthionine (S,R)-sulfoximine) under conditions of restricted selenium causes depletion of cellular glutathione (GSH) and severe plasma membrane damage leading to cell death. Preincubation with the test compounds before the addition of BSO is used to determine if they can protect FRDA cells from BSO-mediated cell death.
Primary fibroblasts were derived from donors with a molecular diagnosis of FRDA and control donors with no mitochondrial disease. Lines F2, C2 and C3 were obtained from Coriell Cell Repositories (Camden, N.J., USA; catalog #'s GM04078, GM 08402 and GM08399, respectively). All cell types were diagnosed at the molecular level for intronic GAA triplet repeat length in the trataxin gene using a PCR-based method, according to methods known in the art. […] The cells were seeded in microtiter plates at a density of 4000 cells per 100 μl in growth medium consisting of 25% (v/v) M199 EBS and 64% (v/v) MEM EBS without phenol red (Bioconcept, Allschwil, Switzerland) supplemented with 10% (v/v) fetal calf serum (PAA Laboratories, Linz, Austria), 100 U/ml penicillin, 100 μg/ml streptomycin (PAA Laboratories, Linz, Austria), 10 μg/ml insulin (Sigma, Buchs, Switzerland), 10 μg/ml EGF (Sigma, Buchs, Switzerland), 10 μg/ml bFGF (PreproTech, Rocky Hill, N.J., USA) and 2 mM glutamine (Sigma, Buchs, Switzerland). The cells were incubated in the presence of the various test compounds for 24 h before addition of 1 mM BSO (L-buthionine (S,R)-sulfoximine).
Cell viability was measured after the first signs of toxicity appeared in the BSO-treated controls (typically after 16-48 h). The cells were stained for 60 min at room temperature in PBS with 1.2 μm calceinAM and 4 μm ethidium homodimer (Live/Dead assay, Molecular Probes, Eugene, Oreg., USA). Fluorescence intensity was measured with a Gemini Spectramax XS spectrofluorimeter (Molecular Devices, Sunnyvale, Calif., USA) using excitation and emission wavelengths of 485 and 525 nm, respectively.

Row | Compound | EC50 [µM]
1 | Cc1c(C)c2c(c(CCC(C)C)c1O)CCC(C)(C)O2 [2,2,7,8-Tetramethyl-5-(3-methyl-butyl)-chroman-6-ol] | 0.01 to 6
2 | CC(C)=CCc1c(O)c(C)c(C)c2c1CCC(C)(CCCl)O2 (stereo not shown) [2-(2-Chloro-ethyl)-2,7,8-trimethyl-5-(3-methyl-but-2-enyl)-chroman-6-ol] | 0.01 to 6
3 | Cc1c(O)cc2c(c1C)OC(C)(CCCl)CC2 (stereo not shown) [2-(2-chloro-ethyl)-2,7,8-trimethyl-chroman-6-ol] | 0.01 to 6
4 | Cc1c(C)c2c(c(CSCC(NC(=O)CCC(N)C(=O)O)C(=O)NCC(=O)O)c1O)CCC(C)(CCCC(C)CCCC(C)CCCC(C)C)O2 (stereo not shown) [2-Amino-4-{1-(carboxymethyl-carbamoyl)-2-[6-hydroxy-2,7,8-trimethyl-2-(4,8,12-trimethyl-tridecyl)-chroman-5-ylmethylsulfanyl]-ethylcarbamoyl}-butyric acid] | 0.01 to 6
5 | Cc1c(O)cc2c(c1C)OC(C)(CCC(=O)NC(CCC(=O)NC(CS)C(=O)NCC(=O)O)C(=O)O)CC2 (stereo not shown) [4-[1-(Carboxymethyl-carbamoyl)-2-mercapto-ethylcarbamoyl]-2-[3-(6-hydroxy-2,7,8-trimethyl-chroman-2-yl)-propionylamino]-butyric acid] | 0.01 to 6
6 | Cc1c(O)cc2c(c1C)OC(C)(CCCC1SC(=O)NC1=O)CC2 (stereo not shown) [5-[3-(6-Hydroxy-2,7,8-trimethyl-chroman-2-yl)-propyl]-thiazolidine-2,4-dione] | 0.01 to 6
7 | Cc1cc(O)cc2c1OC(C)(CCCC(C)CCCC(C)CCCC(C)C)CC2 (stereo not shown) [Delta tocopherol, 2,8-dimethyl-2-(4,8,12-trimethyl-tridecyl)-chroman-6-ol] | 0.01 to 6
8 | CC(C)=CCCC(C)=CCCC(C)=CCCC1(C)CCc2cc(O)cc(C)c2O1 (stereo not shown) [Delta tocotrienol, 2,8-dimethyl-2-(4,8,12-trimethyl-trideca-3,7,11-trienyl)-chroman-6-ol] | 0.01 to 6
9 | Cc1c(O)cc2c(c1C)OC(C)(CCCC(C)CCCC(C)CCCC(C)C)CC2 (stereo not shown) [Gamma-tocopherol, 2,7,8-trimethyl-2-(4,8,12-trimethyltridecyl)-6-chromanol] | 0.01 to 6
10 | CC(C)=CCCC(C)=CCCC(C)=CCCC1(C)CCc2cc(O)c(C)c(C)c2O1 (stereo not shown) [Gamma-tocotrienol, 2,7,8-trimethyl-2-(4,8,12-trimethyl-trideca-3,7,11-trienyl)-chroman-6-ol] | 0.01 to 6

These compounds were tested on dopaminergic neuronal cell line (assay: High glutamate-induced oxidative stress assay (HGOS)). Settings: Mus musculus; 30 mM glutamate, 16 hrs, Cell Tracker Green; read-out: EC50 for protection against HGOS cell injury and cell death.
Format: cell-based
Text: Protection against redox stress can be further evaluated in cell culture using high glutamate induced oxidative stress (HGOS) in mouse dopaminergic cell lines. The cytotoxic effect of glutamate is not due to excitotoxicity, as this cell line is devoid of inotropic glutamate receptors. Rather, the glutamate-induced toxicity of dopaminergic cells is associated with an inhibition of cystine transport which subsequently leads to depletion of intracellular glutathione (GSH) levels (Murphy T. H., et al. Neuron 2, 1547-1558, 1989), activation of neuronal 12-lipoxygenase (Li, Y. et al., Neuron 19,453-463, 1997), increased ROS production (Tan S. et al., J. Cell Biol. 141, 1423-1432, 1998) and elevated intracellular Ca^2+ (Li, Y. et al., see supra). Some molecules were measured for their ability to protect such cells against glutamate-induced stress and the assay is detailed in Examples.
This procedure was used to induce high glutamate-induced oxidative stress (HGOS) in a dopaminergic neuronal cell line. Using this assay the potency and efficacy of test articles against HGOS neuronal cell injury and cell death was established in a high throughput manner.
The cells were seeded into 96-well plates at a density of 2000 per well and left to grow for 72 hours in a 33° C. incubator with 5% CO2 in air atmosphere. The passage number of the cells for each assay experiment were no later than p11 in order to minimize experimental variation.
All compounds were dissolved in DMEM-No Glu containing 1 mM glucose, 30 mM glutamate and 1× Pen/Strep. DMEM-No Glu with 1 mM glucose and 1×P/S was used as the negative control, DMEM-No Glucose with 1 mM glucose, […] was used as a positive control and 100 μM Glutathione was added to the positive control as a standard. All of the procedures for this involving the making and dilution of compounds were performed using aseptic conditions and with minimal light.
The plates were removed from the incubator and examined under the microscope for morphological appearance and density. Using an aseptic technique and an 8-channel aspirator the media was carefully removed from the cells and replaced with 200 μl of 1×HBSS. This was done as quickly as possible to prevent the cells drying out. The plates were then placed in the humidified 37° C. incubators of the Biomek 2000 Side Loader. Four plates were washed at a time so as to minimize the time that the cells were sitting in 1×HBSS prior to addition of the compound test solution.
The Beckman Biomek workstations were used to load the compounds and controls from the mother plates onto the cell plates that were prewashed with HBSS under sterile conditions. The plates were incubated in the upper HTS incubator at 37° C. in 5% CO2 for exactly 16 hrs. The following day, using the Beckman Biomek workstations, the plates were removed from the incubator. Using Cell Tracker Addition, the compounds were removed from the plates, washed once with […] of pre-warmed 1×HBSS and then 100 μL of 5 μM Cell Tracker Green was added to each well. The plates were incubated at 37° C. for 30 min to allow the dye to enter the cell and be cleaved by the esterases. After washing the cells twice with prewarmed 1×HBSS, the plates were read with the 485 excitation; 538 emission filter pair on a Fluoroskan.

Row | Compound | EC50 [µM]
11 | Cc1c(C)c2c(c(C)c1O)C=CC(C)(C)O2 [2,2,5,7,8-Pentamethyl-2H-chromen-6-ol] | ≤ 5
12 | Cc1c(O)c(C)c([N+](=O)[O-])c2c1CCC(C)(C)O2 [2,2,5,7-Tetramethyl-8-nitro-chroman-6-ol] | ≤ 5
13 | Cc1cc(O)c(C)c2c1OC(C)(C)CC2 [2,2,5,8-Tetramethyl-chroman-6-ol] | ≤ 5
14 | Cc1c(C)c2c(c(CCC(C)C)c1O)CCC(C)(C)O2 [2,2,7,8-Tetramethyl-5-(3-methyl-butyl)-chroman-6-ol] | ≤ 5
15 | Cc1c(O)cc2c(c1C)OC(C)(C)CC2 [2,2,7,8-Tetramethyl-chroman-6-ol] | ≤ 5
16 | CC(C)=CCc1c(O)c(C)c(C)c2c1CCC(C)(CCCl)O2 (stereo not shown) [2-(2-Chloro-ethyl)-2,7,8-trimethyl-5-(3-methyl-but-2-enyl)-chroman-6-ol] | ≤ 5
17 | Cc1c(O)cc2c(c1C)OC(C)(CCCl)CC2 (stereo not shown) [2-(2-chloro-ethyl)-2,7,8-trimethyl-chroman-6-ol] | ≤ 5
18 | Cc1c(O)cc2c(c1C)OC(C)(CCCCl)CC2 (stereo not shown) [2-(3-Chloro-propyl)-2,7,8-trimethyl-chroman-6-ol] | ≤ 5
19 | Cc1c(C)c2c(c(CC(CO)CO)c1O)CCC(C)(C)O2 [2-(6-Hydroxy-2,2,7,8-tetramethyl-chroman-5-ylmethyl)-propane-1,3-diol] | ≤ 5
20 | Cc1c(C)c2c(c(C)c1O)CCC(C)(COCC(=O)Nc1cccc(C(F)(F)F)c1)O2 (stereo not shown) [2-(6-Hydroxy-2,5,7,8-tetramethyl-chroman-2-ylmethoxy)-N-(3-trifluoromethyl-phenyl)-acetamide] | ≤ 5
21 | C#CC1(C)CCc2c(C)c(O)c(C)c(C)c2O1 (stereo not shown) [2-Ethynyl-2,5,7,8-tetramethyl-chroman-6-ol] | ≤ 5
22 | Cc1c(C)c2c(c(C)c1O)CCC(C)(CO)O2 (stereo not shown) [2-Hydroxymethyl-2,5,7,8-tetramethyl-chroman-6-ol] | ≤ 5
23 | Cc1c(C)c2c(c(Br)c1O)CCC(C)(CCC(=O)O)O2 (stereo not shown) [3-(5-Bromo-6-hydroxy-2,7,8-trimethyl-chroman-2-yl)-propionic acid] | ≤ 5
24 | Cc1c(O)cc2c(c1C)OC1(C)CCCC2C1 (stereo not shown) [5,6,9-Trimethyl-8-oxa-tricyclo[7.3.1.0^2,7]trideca-2,4,6-trien-4-ol] | ≤ 5
25 | Cc1c(C)c2c(c(C(C)O)c1O)CCC(C)(C)O2 (stereo not shown) [5-(1-Hydroxy-ethyl)-2,2,7,8-tetramethyl-chroman-6-ol] | ≤ 5
26 | Cc1c(C)c2c(c(CCO)c1O)CCC(C)(C)O2 [5-(2-Hydroxy-ethyl)-2,2,7,8-tetramethyl-chroman-6-ol] | ≤ 5
27 | Cc1c(C)c2c(c(CN3CCN(Cc4ccccc4)CC3)c1O)CCC(C)(CCCC(C)CCCC(C)CCCC(C)C)O2 (stereo not shown) [5-(4-Benzyl-piperazin-1-ylmethyl)-2,7,8-trimethyl-2-(4,8,12-trimethyl-tridecyl)-chroman-6-ol] | ≤ 5
28 | Cc1c(C)c2c(c(CO)c1O)CCC(C)(C)O2 [5-Hydroxymethyl-2,2,7,8-tetramethyl-chroman-6-ol] | ≤ 5
29 | Cc1c(O)cc2c(c1C)OC(C)(CCCC1SC(=O)NC1=O)CC2 (stereo not shown) [5-[3-(6-Hydroxy-2,7,8-trimethyl-chroman-2-yl)-propyl]-thiazolidine-2,4-dione] | ≤ 5
30 | Cc1c(O)c(C)c2c(c1C=O)OC(C)(C)CC2 [6-Hydroxy-2,2,5,7-tetramethyl-chroman-8-carbaldehyde] | ≤ 5
31 | Cc1c(C)c2c(c(C)c1O)CCC(C)(C(=N)N)O2 (stereo not shown) [6-Hydroxy-2,5,7,8-tetramethyl-chroman-2-carboxamidine] | ≤ 5
32 | COc1cccc2c(O)cc3c(c12)OC(C)(C)CC3 [10-Methoxy-2,2-dimethyl-3,4-dihydro-2H-benzo[h]chromen-6-ol] | ≤ 5
33 | Cc1c(C)c2c(c(C)c1O)CCC(C)(C(=O)N1CCNCC1)O2 (stereo not shown) [(6-Hydroxy-2,5,7,8-tetramethyl-chroman-2-yl)-piperazin-1-yl-methanone] | ≤ 5
34 | CC(=O)N(C)CC1(C)CCc2c(C)c(O)c(C)c(C)c2O1 (stereo not shown) [N-(6-Hydroxy-2,5,7,8-tetramethyl-chroman-2-ylmethyl)-N-methyl-acetamide] | ≤ 5
